Results reported in US20250319056A1, “METHODS FOR TREATING CANCER” (THE TRUSTEES OF INDIANA UNIVERSITY, priority 2024, published 2025).

Legend:
HT-29 cells = test: AlamarBlue cell viability assay, HT-29 colon cancer cells; type: cell-based; conditions: Homo sapiens, 48 h with compound, ^BP = curve baseline plateaued between ~10-20%
GroEL/ES = biological target: T1, GroEL/ES (Escherichia coli, UniProt P0A6F5); test: GroEL/ES-dMDH refolding assay; type: biochemical, E. coli
T1 construct: made in house; host or cells: NEB 5-alpha E. coli for GroEL; E. coli BL21 (DE3) for GroES

mHSP60/10 = biological target: T2, mHSP60/10 (Homo sapiens, UniProt P10809); test: mHSP60/10-mediated dMDH refolding assay; type: biochemical; conditions: denatured malate dehydrogenase client; read-out: IC50 mHSP60/10-dMDH refolding
T2 construct: Processed human HSP60 (mHSP60—that would be in mitochondria) was expressed in Rosetta™ 2 (DE3) E. coli; octa-Histidine tag (TEV-cleavable) (N, cleaved yes); made in house; host or cells: E. coli Rosetta 2 (DE3) for mHSP60; Rosetta 2 (DE3) pLysS for HSP10

DLD-1 cells = test: AlamarBlue cell viability assay, DLD-1 colon cancer cells; type: cell-based; conditions: Homo sapiens, 48 h with compound, ^BP = curve baseline plateaued between ~10-20%, read-out: Human Cell Viability EC50 Colon Cancer (DLD1)
FHs-74Int cells = test: AlamarBlue cell viability assay, non-cancerous intestine FHs-74Int cells; conditions: read-out: Human Cell Viability CC50 Intestine (FHs 74Int); non-cancerous intestine cells, AlamarBlue, 48 h
[1] = as above; conditions: human, FHs-74Int non-cancerous intestine cells, Human Cell Viability CC50 Intestine (FHs 74Int), non-cancerous intestine cells, AlamarBlue, 48 h
[2] = AlamarBlue cell viability assay, non-cancerous colon FHC cells; conditions: human, FHC non-cancerous colon cells, Human Cell Viability CC50 Colon (FHC), non-cancerous colon cells, AlamarBlue, 48 h
FHC cells = test: as above; conditions: read-out: Human Cell Viability CC50 Colon (FHC); non-cancerous colon cells, AlamarBlue, 48 h
HCT-116 cells = test: AlamarBlue cell viability assay, HCT-116 colon cancer cells; type: cell-based, human; conditions: for Average Selectivity Index: CC50 non-cancer cells (FHC, FHs 74Int) compared to EC50 HCT-116; for EC50: Homo sapiens, HCT-116, 48 h, AlamarBlue, 48 h with compound, read-out: Human Cell Viability EC50 Colon Cancer (HCT 116)
NCI-60 cancer cell panel [3] = test: NCI-60 panel single-dose cell growth screen; type: cell-based; conditions: single dose 10 μM; 0 = cytostatic, -100% = cytocidal, +100% = growth
Experimental: FIGS. 10A-10J show cell growth results for 10 lead candidate inhibitors (compound 162, FIG. 10A; compound 163, FIG. 10B; compound 164, FIG. 10C; compound 4, FIG. 10D; compound 165, FIG. 10E; compound 139, FIG. 10F; compound 132, FIG. 10G; compound 143, FIG. 10H; compound 147, FIG. 10I; compound 128, FIG. 10J) tested at 10 μM against the NCI cancer cell panel. Zero indicates no cells growth/death from what was initially plated (cytostatic inhibition). −100% indicates […] (cytocidal inhibition). +100% indicates cell growth.
In a previous study evaluating the anti-cancer effects of ABK inhibitors, the National Cancer Institute (NCI) database was explored for existing cytotoxicity results for any compounds bearing α,β-unsaturated ketone moieties against the comprehensive NCI-60 cancer cell panel. […] The HQ-NAH and NF-NAH inhibitor library was explored based on the similarity to Nifuroxazide's scaffold. […] Initial screening was performed at a single concentration of 10 μM, and cell growth results are presented in aggregate based on cancer cell origin (FIGS. 10A-10J).

NCI-60 cancer cell panel [4] = test: NCI-60 panel dose-response cell growth testing; type: cell-based; conditions: follow-up dose response, range across NCI-60 cell lines
Source text: FIGS. 11A-11G show cell growth results in dose-response for 7 lead candidate inhibitors (compound 162, FIG. 11A; compound 164, FIG. 11B; compound 128, FIG. 11C compound 165, FIG. 11D; compound 139, FIG. 11E; compound 143, FIG. 11F; compound 147, FIG. 11G) from initial single-dose NCI-60 screen.
Therefore, they appeared to act in a cytocidal manner.

T1 sequence (P0A6F5 2-548): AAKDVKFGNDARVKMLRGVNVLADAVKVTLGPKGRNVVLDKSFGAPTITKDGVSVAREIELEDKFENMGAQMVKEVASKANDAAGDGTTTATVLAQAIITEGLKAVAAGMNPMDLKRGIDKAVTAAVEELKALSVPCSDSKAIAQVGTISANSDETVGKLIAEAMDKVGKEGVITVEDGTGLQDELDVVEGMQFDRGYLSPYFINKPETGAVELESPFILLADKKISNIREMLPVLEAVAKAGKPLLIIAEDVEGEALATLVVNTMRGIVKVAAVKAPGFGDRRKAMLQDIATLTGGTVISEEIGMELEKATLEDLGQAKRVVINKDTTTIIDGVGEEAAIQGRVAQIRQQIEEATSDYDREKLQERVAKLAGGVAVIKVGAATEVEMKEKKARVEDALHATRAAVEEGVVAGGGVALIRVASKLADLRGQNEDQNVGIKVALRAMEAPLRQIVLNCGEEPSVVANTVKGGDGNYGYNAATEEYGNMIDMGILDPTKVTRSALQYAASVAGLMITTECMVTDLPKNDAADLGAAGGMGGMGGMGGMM
T2 sequence (P10809 27-573): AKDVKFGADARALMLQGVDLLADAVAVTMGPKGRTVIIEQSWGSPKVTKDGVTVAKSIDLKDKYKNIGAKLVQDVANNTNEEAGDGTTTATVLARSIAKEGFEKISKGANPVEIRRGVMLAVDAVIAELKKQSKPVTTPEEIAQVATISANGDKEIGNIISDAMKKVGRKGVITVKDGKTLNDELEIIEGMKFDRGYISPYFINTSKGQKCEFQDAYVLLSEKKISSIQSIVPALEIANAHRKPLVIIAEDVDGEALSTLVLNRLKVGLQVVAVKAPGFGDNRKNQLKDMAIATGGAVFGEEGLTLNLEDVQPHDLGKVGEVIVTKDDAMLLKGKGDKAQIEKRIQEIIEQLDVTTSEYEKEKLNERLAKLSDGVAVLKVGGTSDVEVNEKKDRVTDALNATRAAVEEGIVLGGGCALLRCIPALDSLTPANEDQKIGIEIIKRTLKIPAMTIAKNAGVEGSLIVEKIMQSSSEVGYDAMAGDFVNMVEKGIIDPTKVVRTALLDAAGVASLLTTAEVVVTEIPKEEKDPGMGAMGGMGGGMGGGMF

| SMILES | EC50 (HT-29 cells) [µM] | IC50 (GroEL/ES) [µM] | IC50 (mHSP60/10) [µM] | EC50 (DLD-1 cells) [µM] | CC50 (FHs-74Int cells) [µM] | CC50 at 48 h [1] [µM] | CC50 at 48 h [2] [µM] | CC50 (FHC cells) [µM] | Average Selectivity Index (HCT-116 cells) | EC50 (HCT-116 cells) [µM] | cell growth % NCI cancer cell panel (NCI-60 cancer cell panel [3]) | GI50 (NCI-60 cancer cell panel [4]) [µM] |
| --- | --- | --- | --- | --- | --- | --- | --- | --- | --- | --- | --- | --- |
| COc1ccc(C(=O)N/N=C/c2ccc(O)c3ncccc23)cc1 [Compound 18, N′-((8-hydroxyquinolin-5-yl)methylene)-4-methoxybenzohydrazide] | 3.5 | 0.8 to 9 | 0.8 to 9 | 3.8 | 55 | 54.9 | 28.4 | 28 | 5.3 | 7.8 |  |  |
| CCOc1ccc(S(=O)(=O)Nc2ccc(C(=O)N/N=C/c3ccc(O)c4ncccc34)cc2)cc1 [Compound 147, 4-ethoxy-N-(4-(2-((8-hydroxyquinolin-5-yl)methylene)hydrazine-1-carbonyl)phenyl)benzenesulfonamide] | 2.9 |  |  | 6.2 |  | 40 | 52 |  | 25 | 1.8 | negative % growth | 0.2 to 0.4 |
